According to article PMC4671318 (Proteins, 2012):

Target: human aldose reductase (AR) (Homo sapiens, UniProt P15121)
Assay: X-ray crystallography
Assay type: biochemical

O=C(O)COc1cc(F)ccc1C(=S)NCc1ccc(Br)cc1F [compound 594, IDD594]
IC50: 0.124 ± 0.01 µM
